One block for each molecule: values may come before it.
Experiments:
[1] = AUC (0 to 24 hrs) in Balb/c mouse at 10 mg/kg, po; format: ADME, organism-based; set-up: time < 24 hr, dose 10 mg/kg, route oral; conditions: in vivo
[2] = Cmax in Balb/c mouse at 10 mg/kg, po; format: ADME, organism-based; set-up: dose 10 mg/kg, route oral; conditions: in vivo
[3] = Half life in mouse liver microsomes aat 0.5 uM preincubated for 6 mins followed by NADPH addition measured after 10 mins by LC-MS/MS analysis; format: ADME, microsome
Oryctolagus cuniculus [4] = assay: Effect on QTc time interval in New Zealand White rabbit administered as 10 mins iv infusion measured for 2 mins by ECG analysis; format: ADME, organism-based; conditions: in vivo
[5] = Half life in human liver microsomes aat 0.5 uM preincubated for 6 mins followed by NADPH addition measured after 10 mins by LC-MS/MS analysis; format: ADME, microsome
[6] = Metabolic stability in rat liver microsomes assessed as parent compound remaining at 0.5 uM preincubated for 6 mins followed by NADPH addition measured after 10 mins by LC-MS/MS analysis; format: ADME, microsome; conditions: read-out: Stability
[7] = Metabolic stability in mouse liver microsomes assessed as parent compound remaining at 0.5 uM preincubated for 6 mins followed by NADPH addition measured after 10 mins by LC-MS/MS analysis; format: ADME, microsome; conditions: read-out: Stability
[8] = Half life in rat liver microsomes aat 0.5 uM preincubated for 6 mins followed by NADPH addition measured after 10 mins by LC-MS/MS analysis; format: ADME, microsome
[9] = Metabolic stability in human liver microsomes assessed as parent compound remaining at 0.5 uM preincubated for 6 mins followed by NADPH addition measured after 10 mins by LC-MS/MS analysis; format: ADME, microsome; conditions: read-out: Stability
[10] = AUC in mouse at 6 mg/kg, po; format: ADME, organism-based; conditions: in vivo
Plasma [11] = assay: Drug uptake in New Zealand White rabbit plasma at 3 mg/kg, iv administered as 10 mins infusion measured up to 30 mins post dose; format: ADME, organism-based, Oryctolagus cuniculus; conditions: in vivo
[12] = Half life in mouse at 3 mg/kg, iv; format: ADME, organism-based; conditions: in vivo
[13] = Clearance in mouse at 3 mg/kg, iv; format: ADME, organism-based; conditions: in vivo
[14] = AUC in rat at 5 mg/kg, po; format: ADME, organism-based; conditions: in vivo
Plasma [15] = assay: Free plasma concentration in New Zealand White rabbit at 10 mg/kg, iv administered as 10 mins infusion measured up to 30 mins post dose; format: ADME, organism-based, Oryctolagus cuniculus; conditions: in vivo
[16] = Oral bioavailability in mouse at 6 mg/kg; format: ADME, organism-based; conditions: in vivo
[17] = Volume of distribution at steady state in mouse at 3 mg/kg, iv; format: ADME, organism-based; conditions: in vivo, read-out: Vdss
Oryctolagus cuniculus [18] = assay: Effect on QTc time interval in New Zealand White rabbit at 3 mg/kg, iv administered as 10 mins infusion measured for 2 mins by ECG analysis; format: ADME, organism-based; conditions: in vivo
[19] = Clearance in rat at 2 mg/kg, iv; format: ADME, organism-based; conditions: in vivo
[20] = Volume of distribution at steady state in monkey at 1 mg/kg, iv; format: ADME, organism-based, Macaca mulatta; conditions: rhesus monkey, in vivo, read-out: Vdss
Plasma [21] = assay: Drug uptake in New Zealand White rabbit plasma at 20 mg/kg, iv administered as 10 mins infusion measured up to 30 mins post dose; format: ADME, organism-based, Oryctolagus cuniculus; conditions: in vivo
[22] = Volume of distribution at steady state in rat at 2 mg/kg, iv; format: ADME, organism-based; conditions: in vivo, read-out: Vdss
[23] = Half life in dog at 1 mg/kg, iv; format: ADME, organism-based, Canis lupus familiaris; conditions: in vivo
[24] = Clearance in monkey at 1 mg/kg, iv; format: ADME, organism-based, Macaca mulatta; conditions: rhesus monkey, in vivo
Plasma [25] = assay: Drug uptake in New Zealand White rabbit plasma at 10 mg/kg, iv administered as 10 mins infusion measured up to 30 mins post dose; format: ADME, organism-based, Oryctolagus cuniculus; conditions: in vivo
[26] = Oral bioavailability in rat at 5 mg/kg; format: ADME, organism-based; conditions: in vivo
[27] = Half life in rat at 2 mg/kg, iv; format: ADME, organism-based; conditions: in vivo
Plasma [28] = assay: Free plasma concentration in New Zealand White rabbit at 20 mg/kg, iv administered as 10 mins infusion measured up to 30 mins post dose; format: ADME, organism-based, Oryctolagus cuniculus; conditions: in vivo
[29] = Volume of distribution at steady state in dog at 1 mg/kg, iv; format: ADME, organism-based, Canis lupus familiaris; conditions: in vivo, read-out: Vdss
[30] = Cmax in rat at 5 mg/kg, po; format: ADME, organism-based; set-up: dose 5 mg/kg, route oral; conditions: in vivo
Oryctolagus cuniculus [31] = assay: Effect on QTc time interval in New Zealand White rabbit at 10 mg/kg, iv administered as 10 mins infusion measured for 2 mins by ECG analysis; format: ADME, organism-based; conditions: in vivo
[32] = Cmax in dog at 2 mg/kg, po; format: ADME, organism-based, Canis lupus familiaris; set-up: dose 2 mg/kg, route oral; conditions: in vivo
[33] = Half life in monkey at 1 mg/kg, iv; format: ADME, organism-based, Macaca mulatta; conditions: rhesus monkey, in vivo
Oryctolagus cuniculus [34] = assay: Effect on QTc time interval in New Zealand White rabbit at 20 mg/kg, iv administered as 10 mins infusion measured for 2 mins by ECG analysis; format: ADME, organism-based; conditions: in vivo
Plasma [35] = assay: Free plasma concentration in New Zealand White rabbit at 3 mg/kg, iv administered as 10 mins infusion measured up to 30 mins post dose; format: ADME, organism-based, Oryctolagus cuniculus; conditions: in vivo
[36] = Cmax in mouse at 6 mg/kg, po; format: ADME, organism-based; set-up: dose 6 mg/kg, route oral; conditions: in vivo
Canis familiaris = assay: Oral bioavailability in dog at 2 mg/kg; format: ADME, organism-based, Canis lupus familiaris; conditions: in vivo

SMILES: CC(=O)N1CCN(c2cccc(-c3cc(-c4ccnn4CC(F)(F)F)c4c(N)ncnn34)c2)C(=O)C1(C)C
AUC(0-t) at 24 h [1]: 4.1 µM·h | Cmax [2]: 1.8 µM | half-life at 0.5 µM [3]: 0.433 h | Time (Oryctolagus cuniculus [4]): > 10 ms | half-life at 0.5 µM [5]: 0.95 h | remaining at 10 min, 0.5 µM [6]: 70% | remaining at 10 min, 0.5 µM [7]: 62% | half-life at 0.5 µM [8]: 0.517 h | remaining at 10 min, 0.5 µM [9]: 80%

SMILES: CC(=O)N1C[C@H](C)N(c2cc(-c3cc(C(F)(F)F)c4c(N)ncnn34)ccc2C#N)C(=O)C1(C)C
remaining at 10 min, 0.5 µM [6]: 91% | remaining at 10 min, 0.5 µM [7]: 100% | remaining at 10 min, 0.5 µM [9]: 89%

SMILES: CC(=O)N1CCN(c2cccc(-c3cc(-c4cnn(C5CC5)c4)c4c(N)ncnn34)c2)C(=O)C1(C)C
AUC(0-t) at 24 h [1]: 1.1 µM·h | Cmax [2]: 0.47 µM

SMILES: CC(=O)N1CCN(c2cccc(-c3cc(C(F)(F)F)c4c(N)ncnn34)c2)C(=O)C1(C)C
half-life at 0.5 µM [3]: 0.15 h | half-life at 0.5 µM [5]: 0.683 h | remaining at 10 min, 0.5 µM [6]: 52% | remaining at 10 min, 0.5 µM [7]: 30% | half-life at 0.5 µM [8]: 0.233 h | remaining at 10 min, 0.5 µM [9]: 83%

SMILES: CC(=O)N1C[C@H](C)N(c2cc(-c3cc(Cl)c4c(N)ncnn34)ccc2C#N)C(=O)C1(C)C
remaining at 10 min, 0.5 µM [6]: 94% | remaining at 10 min, 0.5 µM [7]: 85% | remaining at 10 min, 0.5 µM [9]: 99%

SMILES: CC(=O)N1C[C@@H](C)N(c2cc(-c3cc(Cl)c4c(N)ncnn34)ccc2C#N)C(=O)C1(C)C
remaining at 10 min, 0.5 µM [6]: 59% | remaining at 10 min, 0.5 µM [7]: 22% | remaining at 10 min, 0.5 µM [9]: 82%

Further lines, with some results ahead:

remaining at 10 min, 0.5 µM [6]: 100% | remaining at 10 min, 0.5 µM [7]: 100% | remaining at 10 min, 0.5 µM [9]: 95%
SMILES: COc1ccc(-c2cc(C(F)(F)F)c3c(N)ncnn23)cc1N1CCN(C(C)=O)C(C)(C)C1=O

remaining at 10 min, 0.5 µM [6]: 100% | remaining at 10 min, 0.5 µM [7]: 84% | remaining at 10 min, 0.5 µM [9]: 100%
SMILES: CC(=O)N1CCN(c2cc(-c3cc(Cl)c4c(N)ncnn34)ccc2S(C)(=O)=O)C(=O)C1(C)C

remaining at 10 min, 0.5 µM [6]: 77% | remaining at 10 min, 0.5 µM [7]: 99% | remaining at 10 min, 0.5 µM [9]: 70%
SMILES: CC(=O)N1CCN(c2cc(-c3cc(C(F)(F)F)c4c(N)ncnn34)ccc2C(F)(F)F)C(=O)C1(C)C

remaining at 10 min, 0.5 µM [6]: 89% | remaining at 10 min, 0.5 µM [7]: 89% | remaining at 10 min, 0.5 µM [9]: 90%
SMILES: CC(=O)N1CCN(c2cc(-c3cc(Cl)c4c(N)ncnn34)ccc2C#N)C(=O)C1(C)C

AUC [10]: 12 µM·h | AUC(0-t) at 24 h [1]: 17 µM·h | concentration (Plasma [11]): 10 µM | half-life [12]: 4.9 h | clearance [13]: 17 mL/min/kg | AUC [14]: 54 µM·h | Cp(f) (Plasma [15]): 2.4 µM | bioavailability [16]: 94% | Vd [17]: 2.7 L/kg | Cmax [2]: 8.2 µM | clearance [19]: 2.3 mL/min/kg | half-life at 0.5 µM [3]: 1.2 h | Vd [20]: 3.6 L/kg | concentration (Plasma [21]): 54 µM | Vd [22]: 0.5 L/kg | half-life at 0.5 µM [5]: > 2 h | half-life [23]: 29 h | remaining at 10 min, 0.5 µM [6]: 91% | clearance [24]: 4.6 mL/min/kg | remaining at 10 min, 0.5 µM [7]: 81% | half-life at 0.5 µM [8]: 1.12 h | concentration (Plasma [25]): 27 µM | bioavailability [26]: 71% | half-life [27]: 3.5 h | Cp(f) (Plasma [28]): 4.8 µM | Vd [29]: 0.61 L/kg | Cmax [30]: 14 µM | Cmax [32]: 6.3 µM | half-life [33]: 10 h | remaining at 10 min, 0.5 µM [9]: 94% | Cp(f) (Plasma [35]): 0.9 µM | Cmax [36]: 5.9 µM | F (Canis familiaris): 75%
SMILES: CC(=O)N1CCN(c2cc(-c3cc(C(F)(F)F)c4c(N)ncnn34)ccc2C#N)C(=O)C1(C)C
Time (Oryctolagus cuniculus [18]): 2.2 ms | Time (Oryctolagus cuniculus [31]): 13 ms | Time (Oryctolagus cuniculus [34]): 25 ms

remaining at 10 min, 0.5 µM [6]: 87% | remaining at 10 min, 0.5 µM [7]: 88% | remaining at 10 min, 0.5 µM [9]: 95%
SMILES: CC(=O)N1CCN(c2cc(-c3cc(Cl)c4c(N)ncnn34)ccc2C(F)(F)F)C(=O)C1(C)C

Reference: ChEMBL document CHEMBL4014340, “Identification of a Potent, Selective, and Efficacious Phosphatidylinositol 3-Kinase δ (PI3Kδ) Inhibitor for the Treatment of Immunological Disorders” (J Med Chem, 2017)
